Assay results: ChEMBL document CHEMBL4007493 (J Med Chem, 2017)

Tests used:
D(3) dopamine receptor [1] = target: T1, D(3) dopamine receptor (Homo sapiens, UniProt P35462); assay: biochemical
D(2) dopamine receptor [2] = target: T2, D(2) dopamine receptor (Homo sapiens, UniProt P14416); assay: biochemical
D(2) dopamine receptor [3] = target: T2, D(2) dopamine receptor
D(2) dopamine receptor [4] = target: T2, D(2) dopamine receptor; remark: listed apart in the source
D(2) dopamine receptor [5] = target: T2, D(2) dopamine receptor; remark: listed apart in the source
D(2) dopamine receptor [6] = target: T2, D(2) dopamine receptor; remark: listed apart in the source
D(2) dopamine receptor [7] = target: T2, D(2) dopamine receptor; assay: Antagonist activity at human dopamine D2 receptor expressed in HEK293 cells coexpressing renilla luciferase-fused GalphaoA/GFP10-fused Ggamma2 assessed as inhibition of quinpirole-induced GalphaoA activation by BRET assay relative to quinpirole; format: cell-based
D(2) dopamine receptor [8] = target: T2, D(2) dopamine receptor; remark: listed apart in the source
D(2) dopamine receptor [9] = target: T2, D(2) dopamine receptor; assay: Antagonist activity at renilla luciferase-tagged human dopamine D2 receptor expressed in HEK293 cells coexpressing mVenus-fused beta-arrestin 2 assessed as reduction in quinpirole-mediated beta-arrestin 2 recruitment preincubated for 15 mins followed by quinpirole addition measured for 1 sec by BRET assay relative to quinpirole; format: cell-based
D(2) dopamine receptor [10] = target: T2, D(2) dopamine receptor; assay: Antagonist activity at human dopamine D2 receptor expressed in forskolin stimulated-HEK293 cells coexpressing renilla luciferase-fused Galphai1/GFP10-fused Ggamma2 assessed as inhibition of quinpirole-induced Galphai1 activation by BRET assay relative to quinpirole; format: cell-based
D(2) dopamine receptor [11] = target: T2, D(2) dopamine receptor; remark: listed apart in the source
D(2) dopamine receptor [12] = target: T2, D(2) dopamine receptor; remark: listed apart in the source
D(2) dopamine receptor [13] = target: T2, D(2) dopamine receptor; assay: Antagonist activity at human dopamine D2 receptor expressed in HEK293 cells assessed as reduction in quinpirole-mediated cAMP inhibition preincubated for 15 mins followed by quinpirole addition measured for 1 sec by BRET assay relative to quinpirole; format: functional, cell-based
D(3) dopamine receptor [14] = target: T1, D(3) dopamine receptor

T2 sequence (P14416 whole entry): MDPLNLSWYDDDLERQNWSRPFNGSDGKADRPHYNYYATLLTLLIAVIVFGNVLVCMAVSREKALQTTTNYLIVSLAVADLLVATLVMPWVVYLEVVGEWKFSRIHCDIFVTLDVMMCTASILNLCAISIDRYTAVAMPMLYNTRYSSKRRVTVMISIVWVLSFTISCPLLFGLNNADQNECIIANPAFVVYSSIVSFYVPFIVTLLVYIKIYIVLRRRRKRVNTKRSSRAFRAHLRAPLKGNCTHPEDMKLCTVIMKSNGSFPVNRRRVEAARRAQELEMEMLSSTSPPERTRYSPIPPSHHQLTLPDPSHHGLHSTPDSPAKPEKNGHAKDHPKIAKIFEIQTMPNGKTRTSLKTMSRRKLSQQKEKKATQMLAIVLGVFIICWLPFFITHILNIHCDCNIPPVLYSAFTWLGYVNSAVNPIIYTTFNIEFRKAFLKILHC
T1 sequence (P35462 whole entry): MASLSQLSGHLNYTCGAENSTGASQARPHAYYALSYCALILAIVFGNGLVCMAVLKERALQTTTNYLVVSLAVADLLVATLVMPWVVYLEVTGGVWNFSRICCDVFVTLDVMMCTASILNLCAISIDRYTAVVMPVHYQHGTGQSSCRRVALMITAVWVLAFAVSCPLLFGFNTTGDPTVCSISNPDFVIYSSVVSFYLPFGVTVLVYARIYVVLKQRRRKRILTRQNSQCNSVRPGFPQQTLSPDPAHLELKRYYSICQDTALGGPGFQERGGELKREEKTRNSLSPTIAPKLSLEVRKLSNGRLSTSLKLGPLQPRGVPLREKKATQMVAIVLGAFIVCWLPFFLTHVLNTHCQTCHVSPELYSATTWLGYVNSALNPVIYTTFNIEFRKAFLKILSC

Ki (D(3) dopamine receptor [1]) [nM] | Ki (D(2) dopamine receptor [2]) [nM] | EC50 (D(2) dopamine receptor [3]) [nM] | EC50 (D(2) dopamine receptor [4]) [nM] | EC50 (D(2) dopamine receptor [5]) [nM] | EC50 (D(2) dopamine receptor [6]) [nM] | Imax (D(2) dopamine receptor [7]) [%] | IC50 (D(2) dopamine receptor [8]) [µM] | Imax (D(2) dopamine receptor [9]) [%] | Imax (D(2) dopamine receptor [10]) [%] | IC50 (D(2) dopamine receptor [11]) [nM] | Imax (D(2) dopamine receptor [13]) [%] | SMILES | IC50 (D(2) dopamine receptor [12]) [nM] | Ki (D(3) dopamine receptor [14]) [nM]
141 | 124 | – | – | – | – | – | – | – | – | – | – | CN[C@@H]1Cc2cccc3c2n(c(=O)n3CCCCCCCCCCCCOCCCCc2ccccc2)C1 | – | –
382 | 40.1 | 189 | 3.1 | 74 | 158 | – | – | – | – | – | – | CN(CCCCOc1ccc2c(c1)NC(=O)CC2)[C@@H]1Cc2cccc3[nH]c(=O)n(c23)C1 | – | –
377 | 121 | – | – | – | – | – | – | – | – | – | – | CN[C@@H]1Cc2cccc3c2n(c(=O)n3CCCCOCCCCc2ccccc2)C1 | – | –
80.6 | 54.8 | – | – | – | – | – | – | – | – | – | – | CCCN[C@@H]1Cc2cccc3c2n(c(=O)n3CCCCCCOCCCCc2ccccc2)C1 | – | –
1350 | 338 | 713 | 255 | 1500 | 105 | -64 | 4.1 | -27 | -34 | – | -10 to 0 | CN[C@@H]1Cc2cccc3c2n(c(=O)n3CCCCOc2ccc3c(c2)NC(=O)CC3)C1 | – | –
227 | 111 | 1850 | 1230 | 2470 | 351 | -36 | – | -13 | -87 | – | – | CN[C@@H]1Cc2cccc3c2n(c(=O)n3CCOCCOCCCCc2ccccc2)C1 | – | –
– | – | 185 | 53.8 | 270 | 56.9 | -27 | 3.65 | -41 | -64 | 2010 | -10 to 0 | CCCN(CCC)[C@@H]1Cc2cccc3c2n(c(=O)n3CCCCNC(=O)c2cc3ccccc3[nH]2)C1 | 713 | –
2.45 | 21.8 | – | – | – | – | – | – | – | – | – | – | CCCn1c(=O)n2c3c(cccc31)C[C@@H](N(C)CCCCNC(=O)c1cc3ccccc3[nH]1)C2 | – | –
139 | 60.6 | – | – | – | – | – | – | – | – | – | – | CN[C@@H]1Cc2cccc3c2n(c(=O)n3CCCCCCOCCCCc2ccccc2)C1 | – | –
– | – | 1150 | 338 | 944 | 458 | -40 | 2.97 | -28 | -31 | 4530 | -10 to 0 | CCCN(CCCCNC(=O)c1cc2ccccc2[nH]1)[C@@H]1Cc2cccc3c2n(c(=O)n3CCC)C1 | – | –
113 | 23.8 | – | 710 | 2530 | – | -33 | 4.49 | -10 to 0 | -80 | 802 | -10 to 0 | CN[C@@H]1Cc2cccc3c2n(c(=O)n3CCCCCCCCCCOCCCCc2ccccc2)C1 | – | –
598 | 284 | 570 | 1460 | – | 667 | -71 | – | -13 | -141 | – | -10 to 0 | CN[C@@H]1Cc2cccc3c2n(c(=O)n3CCCCCCCCCCCCOc2ccc3c(c2)NC(=O)CC3)C1 | – | –
558 | 34.7 | 678 | 279 | 139 | 88.7 | -83 | – | -47 | -72 | – | -10 to 0 | CN[C@@H]1Cc2cccc3c2n(c(=O)n3CCOCCOCCOCCCCc2ccccc2)C1 | – | –
77.7 | 38.7 | – | – | – | – | -67 | – | -10 to 0 | -59 | – | -10 to 0 | CN[C@@H]1Cc2cccc3c2n(c(=O)n3CCCCCCCCOCCCCc2ccccc2)C1 | – | –
115 | 18.5 | – | – | – | – | – | – | – | – | – | – | CCCN[C@@H]1Cc2cccc3c2n(c(=O)n3CCCCNC(=O)c2cc3ccccc3[nH]2)C1 | – | –
640 | 306 | 3980 | 1000 | 1870 | 1060 | -18 | – | -67 | -66 | – | -10 to 0 | CN[C@@H]1Cc2cccc3c2n(c(=O)n3CCOCCOCCOCCOc2ccc3c(c2)NC(=O)CC3)C1 | – | –
– | – | – | – | – | – | – | – | – | – | – | – | CN[C@@H]1Cc2cccc3[nH]c(=O)n(c23)C1 [SUMANIROLE] | – | 573
94.2 | 37.2 | 194 | 25.6 | 197 | 24.6 | – | – | – | – | – | – | CCCN[C@@H]1Cc2cccc3c2n(c(=O)n3CCCCOCCCCc2ccccc2)C1 | – | –

SMILES | Ki (D(3) dopamine receptor [1]) [nM] | Ki (D(2) dopamine receptor [2]) [nM] | EC50 (D(2) dopamine receptor [3]) [nM] | EC50 (D(2) dopamine receptor [4]) [nM] | EC50 (D(2) dopamine receptor [5]) [nM] | EC50 (D(2) dopamine receptor [6]) [nM] | Imax (D(2) dopamine receptor [7]) [%] | IC50 (D(2) dopamine receptor [8]) [µM] | Imax (D(2) dopamine receptor [9]) [%] | Imax (D(2) dopamine receptor [10]) [%] | IC50 (D(2) dopamine receptor [11]) [nM] | Imax (D(2) dopamine receptor [13]) [%] | IC50 (D(2) dopamine receptor [12]) [nM] | Ki (D(3) dopamine receptor [14]) [nM]
CCCN(CCC)[C@@H]1Cc2cccc3c2n(c(=O)n3CCC)C1 | – | – | 16.8 | 1 | 20.5 | 0.9 | -24 | 0.931 | -23 | -45 | 98.9 | – | 158 | –
